From US20140349970A1 (ABBVIE INC., priority 2009, published 2014) come the findings set out here.

Structures are written as SMILES. Bounds are passed on as bounds.

This experiment addresses T1, Syk catalytic domain (aa 356-635 with a C-terminal His-tag) (Homo sapiens, UniProt P43405).
T1 construct: His-tag (C); made in house
The experiment is described as follows: In vitro Syk kinase activity measured by trFRET, Syk catalytic domain. In kind it is biochemical. The conditions noted are these: Syk catalytic domain (aa 356-635), trFRET, 0.001 mM ATP. An outline of the steps: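 Kinase reaction: 0.14 nM His-tagged catalytic domain, 0.2 μM biotin-TYR1 peptide, 0.001 mM ATP in 50 mM MOPSO pH 6.5 with MgCl2, MnCl2, DTT, BSA, vanadate, ~60 min at rt, then EDTA quench. Phosphoproduct detected by trFRET (Eu anti-pTyr antibody/streptavidin-APC, 665 nm emission); IC50 from signal in linear range.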
One may read the IC50 as the point on the concentration scale where inhibition reaches its midpoint. Higher therefore signals a need for much substance. For the molecule `CC(=O)N[C@H]1CC[C@@H](c2ncc3cnc4[nH]c(-c5cccc(S(C)(=O)=O)c5)cc4n23)C1` [J.2.1.2], the IC50 was in the range of 100 to 1000 nM.

`CC(=O)NCCCc1ncc2cnc3[nH]c(-c4cnn(C)c4)cc3n12` [J.2.1.3] had an IC50 of 100 to 1000 nM.

Regarding `CC(=O)NC(C)(C)c1ccc(-c2nc(C3CCCCC3)n3c2cnc2[nH]ccc23)cc1` [J.2.1.4], the IC50 is less than 100 nM.

The molecule `CC(=O)N1CC=C(c2ncn3c2cnc2[nH]ccc23)CC1` [J.2.1.5] yielded an IC50 of 1000 to 10000 nM.

The molecule `CC(=O)N1CCC(O)(c2ccc(-c3nc(C)n4c3cnc3[nH]ccc34)cc2)CC1` [J.2.1.6] came in with an IC50 of less than 100 nM.

Regarding `COc1ccc(-c2nc([C@H]3CCC[C@@H](NC(C)=O)C3)n3c2cnc2[nH]ccc23)cc1` [J.2.1.7], the IC50 was 100 to 1000 nM.

In the case of `CC(=O)NCc1nc(-c2ccc(C(C)(C)O)cc2)c2cnc3[nH]ccc3n12` [J.2.1.8], the IC50 lay within 100 to 1000 nM.

`COc1ccc2c(c1)c(-c1cc3c(ncc4cnc([C@@H]5CC[C@H](NC(C)=O)C5)n43)[nH]1)cn2C` [J.2.1.9] yielded an IC50 of less than 100 nM.

With `Cn1cc(-c2cc3c(ncc4cnn(C)c43)[nH]2)c2cc(C(=O)NC(C)(C)CO)ccc21` [J.2.2.1], the IC50 is less than 100 nM.

`Cn1cc(-c2cc3c(ncc4cnn(C)c43)[nH]2)c2cc(C(=O)NCC(C)(C)CO)ccc21` [J.2.2.2] displayed an IC50 of less than 100 nM.

With `CCOCCCNC(=O)Cn1cccc1-c1cc2c(ncc3cnn(C)c32)[nH]1` [J.2.3.1], the IC50 lay in the range of 1000 to 10000 nM.

In the case of `Cn1ncc2cnc3[nH]c(-c4cccn4CC(=O)N4CCOCC4)cc3c21` [J.2.3.2], the IC50 lay within 1000 to 10000 nM.

With `CN1CCN(C(=O)Cn2cccc2-c2cc3c(ncc4cnn(C)c43)[nH]2)CC1` [J.2.3.3], the IC50 is greater than 10000 nM.

`Cn1ncc2cnc3[nH]c(-c4cccc(CNS(C)(=O)=O)c4)cc3c21` [K.1, N-(3-(1-Methyl-1,6-dihydropyrazolo[3,4-d]pyrrolo[2,3-b]pyridin-7-yl)benzyl)methanesulfonamide] had an IC50 of 100 to 1000 nM.

For the molecule `COc1ccc2c(c1)c(-c1cc3c(ncc4cnc([C@@H]5CC[C@H](NS(=O)(=O)C6CC6)C5)n43)[nH]1)cn2C` [K.1.1], the IC50 is less than 100 nM.

On to `COc1ccc2c(c1)c(-c1cc3c(ncc4cnc(C(F)(F)F)n43)[nH]1)cn2C` [L.1.1, 7-(5-Methoxy-1-methyl-1H-indol-3-yl)-1-(trifluoromethyl)-6H-imidazo[1,5-a]pyrrolo[2,3-e]pyrazine], for which the IC50 lay within 100 to 1000 nM.

Molecule `COc1ccc2c(c1)c(-c1cc3c(ncc4cnc(C5CCCOC5)n43)[nH]1)cn2C` (stereo not shown) [M.1, 7-(5-Methoxy-1-methyl-1H-indol-3-yl)-1-(tetrahydro-2H-pyran-3-yl)-6H-imidazo[1,5-a]pyrrolo[2,3-e]pyrazine] had an IC50 of less than 100 nM.

The molecule `COc1ccc2c(c1)c(-c1cc3c(ncc4cnc(CC(F)(F)F)n43)[nH]1)cn2C` [M.1.1] registered an IC50 of less than 100 nM.

For `CS(=O)(=O)c1cccc(-c2cc3c(ncc4cnc(C(F)(F)F)n43)[nH]2)c1` [M.1.2], the IC50 was in the range of 100 to 1000 nM.

For `Cc1ncc2cnc3[nH]c(-c4cccc(S(C)(=O)=O)c4)cc3n12` [M.1.3], the IC50 was less than 100 nM.

In turn, `CS(=O)(=O)c1cccc(-c2cc3c(ncc4cnc(CCCNC(=O)C(F)(F)F)n43)[nH]2)c1` [M.1.4] yielded an IC50 of 100 to 1000 nM.

For the molecule `CS(=O)(=O)c1cccc(-c2cc3c(ncc4cnc(C5CCCOC5)n43)[nH]2)c1` (stereo not shown) [M.1.5], the IC50 was in the range of 100 to 1000 nM.

`CS(=O)(=O)c1cccc(-c2cc3c(ncc4cnc(C5CCC(O)C5)n43)[nH]2)c1` (stereo not shown) [M.1.6] registered an IC50 of 100 to 1000 nM.

Molecule `COc1ccc2c(c1)c(-c1cc3c(ncc4cnc(CCCO)n43)[nH]1)cn2C` [M.1.7] gave an IC50 of less than 100 nM.

Molecule `COc1ccc2c(c1)c(-c1cc3c(ncc4cnc(N(C)C)n43)[nH]1)cn2C` [M.1.8] registered an IC50 of less than 100 nM.

Molecule `CCc1c(-c2ccc(C(C)(C)O)cc2)[nH]c2ncc3cnc(C)n3c12` [M.1.9] came in with an IC50 of 100 to 1000 nM.

With `COc1ccc2c(c1)c(-c1cc3c(ncc4cnc(C5CCOCC5)n43)[nH]1)cn2C` [M.1.10], the IC50 is less than 100 nM.

`Cc1ncc2cnc3[nH]c(-c4cccc(C(=O)NCCN5CCOCC5)c4)cc3n12` [M.1.11] yielded an IC50 of 100 to 1000 nM.

Molecule `Cc1nnc2cnc3[nH]c(-c4cnn(C)c4)cc3n12` [M.1.12] displayed an IC50 of 1000 to 10000 nM.

In turn, `COc1ccc2c(c1)c(-c1cc3c(ncc4cnc(CCC#N)n43)[nH]1)cn2C` [M.1.13] gave an IC50 of less than 100 nM.

For `COCCCc1ncc2cnc3[nH]c(-c4cn(C)c5ccc(OC)cc45)cc3n12` [M.1.14], the IC50 is less than 100 nM.

On to `CNc1ncc2cnc3[nH]c(-c4ccc(C)cc4)cc3n12` [M.1.15], for which the IC50 is 100 to 1000 nM.

On to `Cc1ccc(-c2cc3c(ncc4cnc(N(C)C)n43)[nH]2)cc1` [M.1.16], for which the IC50 lay in the range of 100 to 1000 nM.

The molecule `COc1ccc2c(c1)c(-c1cc3c(ncc4cnc(N5CCCC5)n43)[nH]1)cn2C` [M.1.17] showed an IC50 of less than 100 nM.

Consider `Cc1ccc(-c2cc3c(ncc4cnc(N5CCCC5)n43)[nH]2)cc1` [M.1.18], for which the IC50 lay within 100 to 1000 nM.

`COc1ccc(-c2cc3c(ncc4nnc(C)n43)[nH]2)cc1` [M.1.19] showed an IC50 of 1000 to 10000 nM.

Molecule `COc1ccc2c(c1)c(-c1cc3c(ncc4nccn43)[nH]1)cn2C` [M.1.20] displayed an IC50 of 100 to 1000 nM.

Molecule `COCCN(C)c1cnc2cnc3[nH]c(-c4cn(C)c5ccc(OC)cc45)cc3n12` [M.1.21] yielded an IC50 of less than 100 nM.

`COc1ccc(-c2cc3c(ncc4c(C)nc(C)n43)[nH]2)cc1` [M.1.22] registered an IC50 of 100 to 1000 nM.

For the molecule `COc1ccc(-c2cc3c(ncc4c(C)ncn43)[nH]2)cc1` [M.1.23], the IC50 is 1000 to 10000 nM.

As to `CS(=O)(=O)c1ccc(-n2c(=O)n(C3CCCCC3)c3c4cc[nH]c4ncc32)cc1` [M.1.24], the IC50 was greater than 10000 nM.

`COc1ccc(-c2cc3c(ncc4cnc(C)n43)[nH]2)cc1` [M.1.25] displayed an IC50 of less than 100 nM.

For `Cc1ncc2cnc3[nH]c(-c4cnn(C)c4)cc3n12` [M.2.1], the IC50 was 100 to 1000 nM.

In turn, `COc1ccc(-c2nn(C)c3c2cnc2[nH]cc(C#N)c23)cc1` [M.2.3] displayed an IC50 of less than 100 nM.

Turning to `Cc1nc(-c2ccc(C(C)(C)O)cc2)c2cnc3[nH]cc(C#N)c3n12` [M.2.4], the IC50 is less than 100 nM.

As to `CN1CCN(CCNC(=O)Cc2cccc(-c3cc4c(ncc5cnn(C)c54)[nH]3)c2)CC1` [N.1, 2-(3-(1-Methyl-1,6-dihydropyrazolo[3,4-d]pyrrolo[2,3-b]pyridin-7-yl)phenyl)-N-(2-(4-methylpiperazin-1-yl)ethyl)acetamide], the IC50 lay in the range of 1000 to 10000 nM.

`Cn1ncc2cnc3[nH]c(-c4ccc(C(C)(C)O)cc4)cc3c21` [N.1.1] returned an IC50 of less than 100 nM.

For `CC(=O)NCc1cccc(-c2cc3c(ncc4cnn(C)c43)[nH]2)c1` [N.1.3], the IC50 is less than 100 nM.

Consider `CNC(=O)c1cccc(-c2cc3c(ncc4cnn(C)c43)[nH]2)c1` [N.1.4], for which the IC50 was less than 100 nM.

The molecule `Cn1ncc2cnc3[nH]c(-c4cccc(C(=O)NCCN5CCOCC5)c4)cc3c21` [N.1.6] registered an IC50 of less than 100 nM.

Consider `COCCCNC(=O)c1cccc(-c2cc3c(ncc4cnn(C)c43)[nH]2)c1` [N.1.7], for which the IC50 was in the range of 100 to 1000 nM.

Molecule `Cn1ncc2cnc3[nH]c(-c4cccc(C(=O)N5CCCC5)c4)cc3c21` [N.1.8] registered an IC50 of 100 to 1000 nM.

As for `CNC(=O)Cc1cccc(-c2cc3c(ncc4cnn(C)c43)[nH]2)c1` [N.1.9], the IC50 was 100 to 1000 nM.

`COCCCNC(=O)Cc1cccc(-c2cc3c(ncc4cnn(C)c43)[nH]2)c1` [N.1.11] had an IC50 of 100 to 1000 nM.

Turning to `Cn1ncc2cnc3[nH]c(-c4cccc(CC(=O)NCCN5CCOCC5)c4)cc3c21` [N.1.12], the IC50 fell in the range of 100 to 1000 nM.

For the molecule `Cn1ncc2cnc3[nH]c(-c4cccc(S(N)(=O)=O)c4)cc3c21` [N.1.13], the IC50 was less than 100 nM.

`COc1ccc(-c2cc3c(ncc4cnn(C)c43)[nH]2)cc1` [N.1.14]: the IC50 is less than 100 nM.

For the molecule `CCc1c(-c2ccc3c(ccn3C)c2)[nH]c2ncc3cnn(C)c3c12` [N.1.15], the IC50 lay in the range of 1000 to 10000 nM.

`CCc1c(-c2cccc3c2ccn3C)[nH]c2ncc3cnn(C)c3c12` [N.1.16] showed an IC50 greater than 10000 nM.

Regarding `Cn1cc(-c2cc3c(ncc4cnn(C)c43)[nH]2)c2cc(F)ccc21` [N.1.17], the IC50 is less than 100 nM.

In the case of `COc1ccc2[nH]cc(-c3cc4c(ncc5cnn(C)c54)[nH]3)c2c1` [N.1.19], the IC50 was less than 100 nM.

For the molecule `CCc1c(-c2ccc(C(C)(C)O)cc2)[nH]c2ncc3cnn(C)c3c12` [N.1.20], the IC50 was less than 100 nM.

As for `CCc1c(-c2cccc(S(C)(=O)=O)c2)[nH]c2ncc3cnn(C)c3c12` [N.1.21], the IC50 was in the range of 100 to 1000 nM.

Regarding `COc1ccc2c(c1)c(-c1cc3c4c(cnc3[nH]1)CCN4C)cn2C` [N.1.22], the IC50 lay in the range of 1000 to 10000 nM.

`CN1CCc2cnc3[nH]c(-c4ccc(C(C)(C)O)cc4)cc3c21` [N.1.23] came in with an IC50 of 1000 to 10000 nM.

Molecule `Cn1cc(-c2cc3c(ncc4cnn(C)c43)[nH]2)c2ccccc21` [N.1.24] gave an IC50 of less than 100 nM.

Molecule `COc1ccc2c(c1)c(-c1cc3c(ncc4cnn(C)c43)[nH]1)cn2CC(=O)N(C)C` [N.1.25] showed an IC50 of less than 100 nM.

On to `COc1ccc2c(c1)c(-c1cc3c(ncc4cnn(C)c43)[nH]1)cn2CC(O)CO` (stereo not shown) [N.1.26], for which the IC50 was less than 100 nM.

For the molecule `Cn1ncc2cnc3[nH]c(-c4cnc5n4CCC5)cc3c21` [N.1.27], the IC50 was 1000 to 10000 nM.

Regarding `COCCNC(=O)Cn1cc(-c2cc3c(ncc4cnn(C)c43)[nH]2)c2cc(OC)ccc21` [N.1.28], the IC50 is less than 100 nM.

The molecule `COc1ccc2c(c1)c(-c1cc3c(ncc4cnn(C)c43)[nH]1)cn2CC(O)CN(C)C` (stereo not shown) [N.1.29] yielded an IC50 of less than 100 nM.

Take `CCc1c(-c2cccc(C(=O)NCCN3CCOCC3)c2)[nH]c2ncc3cnn(C)c3c12` [N.1.30]: the IC50 was in the range of 1000 to 10000 nM.

Molecule `CCc1c(-c2ccc(N3CCOCC3)cc2)[nH]c2ncc3cnn(C)c3c12` [N.1.31] yielded an IC50 of 100 to 1000 nM.
